This note sets out measurements from ChEMBL document CHEMBL1130802, “Design and synthesis of a new type of non steroidal human aromatase inhibitors” (Bioorg Med Chem Lett, 1998).

Experiment [1] has as its target T1, Aromatase (Homo sapiens, UniProt P11511).
T1 sequence (P11511 whole entry): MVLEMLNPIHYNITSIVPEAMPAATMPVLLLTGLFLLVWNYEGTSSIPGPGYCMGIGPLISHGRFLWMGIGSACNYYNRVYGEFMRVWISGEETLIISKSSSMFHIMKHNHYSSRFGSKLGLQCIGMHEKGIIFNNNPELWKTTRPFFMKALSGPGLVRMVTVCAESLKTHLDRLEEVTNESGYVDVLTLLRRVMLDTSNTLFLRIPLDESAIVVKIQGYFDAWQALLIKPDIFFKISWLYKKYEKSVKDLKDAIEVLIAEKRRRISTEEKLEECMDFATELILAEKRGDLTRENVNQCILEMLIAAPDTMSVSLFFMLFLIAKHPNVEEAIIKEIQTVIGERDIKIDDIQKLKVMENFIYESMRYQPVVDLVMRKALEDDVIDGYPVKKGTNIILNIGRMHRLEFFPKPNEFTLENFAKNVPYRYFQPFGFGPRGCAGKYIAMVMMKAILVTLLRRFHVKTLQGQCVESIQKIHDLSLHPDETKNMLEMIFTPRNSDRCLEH
Description: Inhibition constant for human aromatase cytochrome P450 19A1 activity

For experiment [2], the target named is T1, Aromatase. This is another data set of the same source.
Description: Inhibition of human aromatase cytochrome P450 19A1 activity

What is called Ki is the equilibrium dissociation constant of an inhibitor or competing ligand from its target. A lower Ki goes with higher affinity. Usually IC50 stands for the concentration needed to halve the response being measured. Low values mean greater potency, high ones weaker potency. Regarding `O=C1/C(=C\c2ccncc2)C(c2ccccc2)c2ccccc21` (configuration not stated), at Aromatase [1], the Ki was 10.3 nM. The same compound came in with an IC50 at Aromatase [2] of 800 nM.
